{"source": "patent US12613237B2", "about": "“Biosensors for detecting arrestin signaling” (MONTANA MOLECULAR, LLC, priority 2018, dated 2026)", "system": "vasopressin receptor", "assay_type": "cell-based", "details": "HEK293T cells (FIG. 8), compared to vasopressin", "data": [{"smiles": "CC[C@H](C)[C@@H]1NC(=O)[C@H](Cc2ccc(O)cc2)NC(=O)[C@@H](N)CSSC[C@@H](C(=O)N2CCC[C@H]2C(=O)N[C@@H](CC(C)C)C(=O)NCC(N)=O)NC(=O)[C@H](CC(N)=O)NC(=O)[C@H](CCC(N)=O)NC1=O", "note": "[oxytocin]", "values": [{"measurement": "beta arrestin signaling (green fluorescence), speed", "result": "significantly slower"}]}]}
